This is an account of results in PMC9820411, “Late-Stage Functionalization through Click Chemistry Provides GLUT5-Targeting Glycoconjugate as a Potential PET Imaging Probe” (International Journal of Molecular Sciences, 2022).

As usually defined, the IC50 is the concentration at which inhibition is half-maximal. Low values mean greater potency in that assay, high ones weaker potency in that assay.

This experiment has as its target T1, GLUT5 (Homo sapiens, UniProt P22732).
T1 construct: gene SLC2A5
T1 sequence (P22732 1-501): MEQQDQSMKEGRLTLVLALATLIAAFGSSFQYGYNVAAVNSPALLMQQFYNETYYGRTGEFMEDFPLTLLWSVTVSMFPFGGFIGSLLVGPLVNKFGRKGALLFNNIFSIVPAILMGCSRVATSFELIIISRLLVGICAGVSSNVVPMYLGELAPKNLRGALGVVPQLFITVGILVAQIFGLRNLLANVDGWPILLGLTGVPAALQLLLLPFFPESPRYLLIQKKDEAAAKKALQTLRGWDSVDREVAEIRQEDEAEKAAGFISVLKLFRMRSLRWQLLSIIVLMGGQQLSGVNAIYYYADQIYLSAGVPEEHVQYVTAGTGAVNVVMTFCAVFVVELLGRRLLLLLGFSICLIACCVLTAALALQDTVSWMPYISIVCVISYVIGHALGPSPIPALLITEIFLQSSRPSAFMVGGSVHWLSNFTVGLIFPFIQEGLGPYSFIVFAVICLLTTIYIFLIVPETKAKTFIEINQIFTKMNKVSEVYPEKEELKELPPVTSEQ
Description: competition with ManCou-F uptake in MCF7 cells. The class given is cell-based.

As for `OC[C@H]1OC(O)(CO)[C@@H](O)[C@@H]1O` (stereo partly shown) [fructose], the IC50 is around 28 mM.
